Results reported in patent US6028197A, “Dibenzo[a,g]quinolizinium derivatives and the salts thereof” (Hanwha Corporation, priority 1998, dated 2000).
Read-outs that look alike come from different tables or passages of the source.

What was measured:
HepG2 cells = experiment: Cholesterol biosynthesis in cultured human liver cell line ([1,2-14C]acetate incorporation); type: cell-based; conditions: compared with AY9944 (comparative drug)
Protocol: Cultured human liver HepG2 cell line was grown on RPMI (Rosewell park Memorial Institute) 1640 culture medium containing 10% PBS until 60% of monolayer are formed in a 60 mm culture dish. After replacing the medium with 3 ml of a fresh culture medium containing 10% (v/v) LPDS (Fetal calf lipoprotein-deficient serum), the cells were further grown for 48 hours until 90% of cultivation degree appear The culture medium was removed and the cell was then washed with PBS. 2 ml of culture medium containing compound no. 2 (final concentration 100 μM) and AY-9944 (final concentration 1 μM) were added thereto. Then, the medium was cultivated at 37° C. for 1 hour under the condition of 95% air/5% carbonic acid gas. AY-9944 which is an inhibitor for sterol 7-reductase was used as a control drug for assuring the present experimental procedure on the inhibition of cholesterol biosynthesis. Thereafter, 3 μCi of [1,2-^14 C]acetate (72 mCi/mmol) were added thereto. The cultivation was continued for 2 hours so that the isotope is introduced into the cell and used as a precursor for sterol to be synthesized. Then, the culture medium was completely removed and washed with PBS twice and the cells were collected by scratching. 10 μg of cholesterol, 10 μg of lanosterol and [^3 H]cholesterol (30,000 dpm) were added thereto, and saponification reaction was carried out at 70° C. for an hour by adding 7.5% of methanolic KOH solution. Unsaponified sterol was removed by extracting them three times with 3 ml of petroleum ether and dried with nitrogen purging. The dried samples were redissolved in 200 μl of chloroform. An aliquot of the samples was loaded onto Silicagel 60F thin layer plate and then separated using ethyl acetate/hexane 25/75 (v/v) as the developing solvent. The thin layer film was developed by exposure to Amersham Hyperfilm at -70° C. for 7 days. Cholesterol band were confirmed by comparing the band appeared in the film and that appeared in the iodine-stained thin layer. After scratching the cholesterol band, it was quantified by a liquid scintillation counter.

Syrian Golden Hamster = experiment: In vivo effect on plasma lipids in Syrian Golden Hamster; conditions: for HDL cholesterol, change versus normal diet control / LDL cholesterol, change versus normal diet control / Total cholesterol, change versus normal diet control / Triglyceride, change versus normal diet control / HDL cholesterol / LDL cholesterol / Total cholesterol / Triglyceride: 14 days; for HDL cholesterol / LDL cholesterol / Total cholesterol / Triglyceride: normal diet, plasma
Protocol: In order to investigate the effect of the compound of formula (I) of the invention, the compound was orally administered into male Syrian Golden Hamsters having weights of 90~110 g for two weeks and blood was then taken from each animal. Plasma lipids, i.e., total cholesterol, LDL-cholesterol,HDL-cholesterol and triglycerides were analyzed using an automatic analyzer (Automatic analyzer model Hitachi 7150).
Male Syrian Golden Hamsters weighing 90~110 g distributed from Samyuk Animal Laboratory, Seoul, Korea were bred under the following conditions: they were maintained under reverse light cycle (light cycle: from 6 P.M to 6 A.M; dark cycle: from 6 A.M. to 6 P.M.). The food and water were supplied at 10 A.M. The commercially available standard rodent chows were used. The hamsters were divided into 6 or 7 animals per group. The animals were fasted for 12 hours before administrating the drug. Then, 5,6-dihydrodibenzo[a,g]quinolizinium salts (compound no. 2) dissolved in a 0.25% methyl cellulose solution was administered orally for 14 days at the indicated time per a day. After fasting animals for 24 hours from the last administration, blood was extracted using a cardiac puncture and plasma was then isolated. Plasma lipids, i.e., total cholesterol, LDL-cholesterol, HDL-cholesterol and triglyceride values were analyzed using Automatic Analyzer (Hitachi 7150).

sterol 14-reductase = target: T1, sterol 14-reductase (Rattus norvegicus, UniProt A0ACM8Q6X4); experiment: Inhibition of sterol 14-reductase in rat liver microsomes; type: biochemical
T1 construct: microsome which was used as an enzyme source of sterol 14-reductase; from tissue; host or cells: liver microsomes of male Sprague-Dawley rats fed lovastatin and cholestyramine
T1 sequence (A0ACM8Q6X4 1-418): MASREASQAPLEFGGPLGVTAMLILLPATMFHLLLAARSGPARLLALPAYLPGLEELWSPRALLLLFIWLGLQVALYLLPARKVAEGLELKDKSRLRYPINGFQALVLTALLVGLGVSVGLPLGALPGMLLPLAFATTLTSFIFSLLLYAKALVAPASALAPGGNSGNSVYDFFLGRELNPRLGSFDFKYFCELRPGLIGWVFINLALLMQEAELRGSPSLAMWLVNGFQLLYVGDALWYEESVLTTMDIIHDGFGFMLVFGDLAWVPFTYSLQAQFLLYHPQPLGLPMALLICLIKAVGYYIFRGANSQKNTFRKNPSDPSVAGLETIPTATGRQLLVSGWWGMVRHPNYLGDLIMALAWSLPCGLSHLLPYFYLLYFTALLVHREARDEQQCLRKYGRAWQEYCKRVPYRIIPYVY
Protocol: 20 Male Sprague-Dawley rats weighing from 150 to 250 g have been fed for 7 days with a diet containing 0.1% (w/w) Lovastatin and 5% (w/w) Cholestyramine. The animals were fasted for 12 hours before excising liver tissues and then sacrificed by decapitation at midnight. An aqueous solution containing 0.25M of sucrose was injected into the hepatic portal vein to remove all the blood within the liver, and then, the liver was excised. The liver was homogenated with two volumes of buffer solution A (0.1M potassium phosphate, 1 mM reduced glutathione, 0.5 mM EDTA, 20% (v/v) glycerol, pH 7.4) by repeating pestles over 10 times and then, centrifuged with 900×g for 5 minutes to give a supernatant. The supernatant was centrifuged with 12,000×g for 20 minutes. The supernatant obtained was ultracentrifuged with 105,000×g for 90 minutes to give a microsome which was used as an enzyme source of sterol 14-reductase. Assay for sterol 14-reductase was carried out as follows:
60 mmol of 4,4-dimethyl-5α-cholesta-7,14-dien-3β-ol and 5,6-dihydrodibenzo-[a,g]quinolizinium salts (compound no. 2) dissolved in DMSO were added to an assay mixture (total volume 1.0 ml) containing 2 mg of the microsomal protein, 2 mM of NADPH and 25 mg of glucose plus 20 units of glucose oxidase with preincubations under nitrogen at 37° C. for 4 min. unless otherwise specified to establish anaerobic condition. Buffer A (0.1M potassium phosphate buffer, pH 7.4, including 1 mM reduced glutathione, 0.5 mM EDTA, and 20% (v/v) glycerol) used for incubation had been equilibrated with nitrogen, and nitrogen was exchanged for air in all sealed reaction flasks prior to the start of incubations. Incubation of the complete mixture was carried out anaerobically in sealed flasks for 10 min at 37° C. unless otherwise indicated. Incubations were terminated by the addition of 1 ml of ethanolic KOH followed by heating under reflux for 10 min. Sterols were extracted four times with 4 ml of petroleum ether, and the solvent was evaporated to dryness under a nitrogen stream. The resulting residue was dissolved in 200-500 μl of n-hexane for quantification by GLC at high sensitive attenuation. The activity of sterol 14-reductase was determined with the amount of the substrate wherein the double bonds of 14-carbon were reduced (for the amount reduced by 1 mg of the microsome protein for 1 minute).

SD rats = experiment: Acute oral toxicity in SD rats; type: in vivo
Protocol: (§1) Meanwhile, the toxicity of the compounds of the present invention was investigated as follows: i.e., the compounds were suspended into propylene glycol and then orally administered into each of 5 male and female SD rats at the age of 5-weeks that were fasted for 12 hours. Under the usual breeding conditions, general symptoms, weight change and lethal case of the above rats were monitored for two weeks. At the dose over 2,000 mg/kg of the compound nos. 2, 3, 9 and 68, general symptoms and the body weight change of the animals were normal and the lethal case was not observed.

[1] = Acute oral toxicity in SD rats; type: in vivo; conditions: rat, in vivo, po, rats
Protocol: as §1

[2] = read-out: Enzyme Activity (relative in vitro activity for sterol 14-reductase, IC50 class)

CCCOc1cc2c(cc1OCCC)-c1c(CC)c3ccc(OCCC)c(OCc4ccc(C(F)(F)F)cc4)c3c[n+]1CC2 [Compound No. 68, 5,6-dihydro-2,3-dipropoxybenzo[a]-13-ethyl-10-propoxy-9-(4-trifluoromethyl)benzyloxybenzo[g]quinolizinium chloride]
inhibition of cholesterol biosynthesis in human HepG2 cell line (HepG2 cells): markedly inhibited
HDL cholesterol, change versus normal diet control (Syrian Golden Hamster; 0.3 mg/kg/day oral): -2.0%
LDL cholesterol, change versus normal diet control (Syrian Golden Hamster; 0.3 mg/kg/day oral): -41.1%
Total cholesterol, change versus normal diet control (Syrian Golden Hamster; 0.3 mg/kg/day oral): -33.1%
Triglyceride, change versus normal diet control (Syrian Golden Hamster; 0.3 mg/kg/day oral): -43.1%
total cholesterol, LDL-cholesterol, and triglyceride levels (Syrian Golden Hamster; compared with lovastatin): markedly decreased
HDL cholesterol (Syrian Golden Hamster; 0.3 mg/kg/day oral): 58.6 ± 3 mg/dL
LDL cholesterol (Syrian Golden Hamster; 0.3 mg/kg/day oral): 21.8 ± 3 mg/dL
Total cholesterol (Syrian Golden Hamster; 0.3 mg/kg/day oral): 87.4 ± 6 mg/dL
Triglyceride (Syrian Golden Hamster; 0.3 mg/kg/day oral): 45.2 ± 7 mg/dL
IC50 (sterol 14-reductase; [2]): < 1 µM
general symptoms and the body weight change (SD rats; oral dose over 2,000 mg/kg, monitored for two weeks): normal
lethal case (SD rats; rat, in vivo): not observed
LD50 at 336 h ([1]; female): > 3000 mg/kg
LD50 at 336 h ([1]; male): > 3000 mg/kg

CC[C@H](C)C(=O)O[C@H]1C[C@@H](C)C=C2C=C[C@H](C)[C@H](CC[C@@H]3C[C@@H](O)CC(=O)O3)[C@H]21 [lovastatin, reference compound]
HDL cholesterol, change versus normal diet control (Syrian Golden Hamster; 6.0 mg/kg/day oral): +11.2%
LDL cholesterol, change versus normal diet control (Syrian Golden Hamster; 6.0 mg/kg/day oral): -21.4%
Total cholesterol, change versus normal diet control (Syrian Golden Hamster; 6.0 mg/kg/day oral): -17.6%
Triglyceride, change versus normal diet control (Syrian Golden Hamster; 6.0 mg/kg/day oral): -30.1%
HDL cholesterol (Syrian Golden Hamster; 6.0 mg/kg/day oral): 67.0 ± 3 mg/dL
LDL cholesterol (Syrian Golden Hamster; 6.0 mg/kg/day oral): 29.1 ± 2 mg/dL
Total cholesterol (Syrian Golden Hamster; 6.0 mg/kg/day oral): 107.8 ± 9 mg/dL
Triglyceride (Syrian Golden Hamster; 6.0 mg/kg/day oral): 55.5 ± 7 mg/dL

CCc1c2[n+](cc3c(OCc4ccc(-c5ccccc5)cc4)c(OC)ccc13)CCc1cc3c(cc1-2)OCO3 [Compound No. 53, 5,6-dihydro-2,3-methylenedioxybenzo[a]-13-ethyl-10-methoxy-9-(4-phenyl)benzloxybenzo[g]quinolizinium iodide]
IC50 (sterol 14-reductase; [2]): 10 to 100 µM

CCc1c2[n+](cc3c(OCc4ccc(OCc5ccccc5)cc4)c(OC)ccc13)CCc1cc(OC)c(OC)cc1-2 [Compound No. 14, 5,6-dihydro-2,3-dimethoxybenzo[a]-9-(4-benzyloxy)-benzyloxy-13-ethyl-10-methoxybenzo[g]quinolizinium chloride]
IC50 (sterol 14-reductase; [2]): > 100 µM

CCc1c2[n+](cc3c(OCn4nnc5ccccc54)c(OC)ccc13)CCc1cc(OC)c(OC)cc1-2 [Compound No. 29, 5,6-dihydro-2,3-dimethoxybenzo[a]-9-(1H-benzo-triazol-1-yl)methoxy-13-ethyl-10-methoxybenzo[g]-quinolizinium chloride]
IC50 (sterol 14-reductase; [2]): 10 to 100 µM

CCc1c2[n+](cc3c(OCc4cccc(Br)c4)c(OC)ccc13)CCc1cc(OC)c(OC)cc1-2 [Compound No. 34, 5,6-dihydro-2,3-dimethoxybenzo[a]-9-(3-bromo)-benzyloxy-13-ethyl-10-methoxybenzo[g]quinolizinium chloride]
IC50 (sterol 14-reductase; [2]): 10 to 100 µM

CCc1c2[n+](cc3c(OCc4c(F)c(F)c(F)c(F)c4F)c(OC)ccc13)CCc1cc3c(cc1-2)OCO3 [Compound No. 47, 5,6-dihydro-2,3-methylenedioxybenzo[a]-13-ethyl-10-methoxy-9-(2,3,4,5,6-pentafluoro)benzyloxybenzo[g]-quinolizinium iodide]
IC50 (sterol 14-reductase; [2]): < 1 µM

CCc1c2[n+](cc3c(OCc4ccc(Br)cc4)c(OC)ccc13)CCc1cc(OC)c(OC)cc1-2 [Compound No. 19, 5,6-dihydro-2,3-dimethoxybenzo[a]-9-(4-bromo)benzyloxy-13-ethyl-10-methoxybenzo[g]quinolizinium chloride]
IC50 (sterol 14-reductase; [2]): 10 to 100 µM

CCc1c2[n+](cc3c(OCc4cccc(C)c4)c(OC)ccc13)CCc1cc(OC)c(OC)cc1-2 [Compound No. 32, 5,6-dihydro-2,3-dimethoxybenzo[a]-13-ethyl-10-methoxy-9-(3-methyl)benzyloxybenzo[g]quinolizinium chloride]
IC50 (sterol 14-reductase; [2]): > 100 µM

C=CCOc1c(OC)ccc2c(CC)c3[n+](cc12)CCc1cc(OC)c(OC)cc1-3 [Compound No. 26, 5,6-dihydro-2,3-dimethoxybenzo[a]-13-ethyl-10-methoxy-9-allyloxybenzo[g]quinolizinium chloride]
IC50 (sterol 14-reductase; [2]): > 100 µM

CCc1c2[n+](cc3c(OCc4ccc5ccccc5n4)c(OC)ccc13)CCc1cc(OC)c(OC)cc1-2 [Compound No. 36, 5,6-dihydro-2,3-dimethoxybenzo[a]-13-ethyl-10-methoxy-9-(quinolin-2-yl)methoxybenzo[g]quinolizinium chloride]
IC50 (sterol 14-reductase; [2]): 10 to 100 µM

CCCCCCCCCCCCOc1c(OC)ccc2c(CC)c3[n+](cc12)CCc1cc(OC)c(OC)cc1-3 [Compound No. 1, 5,6-dihydro-2,3-dimethoxybenzo[a]-9-dodecoxy-13-ethyl-10-methoxybenzo[g]quinolizinium chloride]
IC50 (sterol 14-reductase; [2]): < 1 µM

CCc1c2[n+](cc3c(OCc4cc(OC)c(OC)c(OC)c4)c(OC)ccc13)CCc1cc(OC)c(OC)cc1-2 [Compound No. 37, 5,6-dihydro-2,3-dimethoxybenzo[a]-13-ethyl-10-methoxy-9-(3,4,5-trimethoxy)benzyloxybenzo[g]quinolizinium chloride]
IC50 (sterol 14-reductase; [2]): > 100 µM

CCc1c2[n+](cc3c(OCc4cccc(C(F)(F)F)c4)c(OC)ccc13)CCc1cc(OC)c(OC)cc1-2 [Compound No. 11, 5,6-dihydro-2,3-dimethoxybenzo[a]-13-ethyl-10-methoxy-9-(3-trifluoromethyl)benzyloxybenzo[g]quinolizinium chloride]
IC50 (sterol 14-reductase; [2]): < 1 µM

CCc1c2[n+](cc3c(OCc4ccc(C)cc4C)c(OC)ccc13)CCc1cc(OC)c(OC)cc1-2 [Compound No. 28, 5,6-dihydro-2,3-dimethoxybenzo[a]-9-(2,4-dimethyl)benzyloxy-13-ethyl-10-methoxybenzo[g]quinolizinium chloride]
IC50 (sterol 14-reductase; [2]): > 100 µM

CCOc1cc2c(cc1OCC)-c1c(CC)c3ccc(OCC)c(OCc4ccc(C(F)(F)F)cc4)c3c[n+]1CC2 [Compound No. 62, 5,6-dihydro-2,3-diethoxybenzo[a]-10-ethoxy-13-ethyl-9-(4-trifluoromethyl)benzyloxybenzo[g]quinolizinium chloride]
IC50 (sterol 14-reductase; [2]): 10 to 100 µM

CCc1c2[n+](cc3c(OCc4c(F)c(F)c(C(F)(F)F)c(F)c4F)c(OC)ccc13)CCc1cc(O)c(O)cc1-2 [Compound No. 60, 5,6-dihydro-2,3-dihydroxybenzo[a]-13-ethyl-10-methoxy-9-(2,3,5,6-tetrafluoro-4-trifluoromethyl)benzyloxybenzo[g]quinolizinium chloride]
IC50 (sterol 14-reductase; [2]): < 1 µM

C=C(COc1c(OC)ccc2c(CC)c3[n+](cc12)CCc1cc(OC)c(OC)cc1-3)C[Si](C)(C)C [Compound No. 44, 5,6-dihydro-2,3-dimethoxybenzo[a]-13-ethyl-10-methoxy-9-[(3-trimethylsilyl)propen-2-yl]oxybenzo[g]quinolizinium chloride]
IC50 (sterol 14-reductase; Enzyme Activity (relative in vitro activity for sterol 14-reductase, IC50 class)): > 100 µM
